# Values joined by “and” are separate entries in the source; they are usually repeats but may differ in a detail not shown here. Identical values can stand only once.
# Experiments:
# [1] = biological target: T1, Nur77 (Homo sapiens, UniProt P22736); assay: Luciferase reporter assay, Nur77 LBD, SK-N-BE(2)C cells; assay type: cell-based; conditions: Fig. 1f, CQ 100 µM, 4A7C-301 20 µM, cytosporone B 10 µM
# T1 construct: using LBD of NR4A subfamily members in SK-N-BE(2)C cells; expressed in transfected cells; host or cells: SK-N-BE(2)C
# [2] = tested on: MPTP-induced male mice; assay: Olfactory discrimination test, MPTP-induced PD model mice; assay type: in vivo, mouse; conditions: Figure 4e, MPTP-induced mice, individual animal values
# Protocol: (§1) MPTP (Sigma-Aldrich) was intraperitoneally (i.p.) injected (30 mg/kg) for 5 days (Day 1-5). […] To test dyskinetic involuntary behavior, an L-DOPA injected group was included, which received 50 mg/kg of L-DOPA and 15 mg/kg of benserazide (Sigma-Aldrich) (i.p.) for 16 days (Day 1–16). All compounds were administered 6 h post-MPTP injection to avoid any effect of compounds on the MPTP metabolism in the brain. Motor and non-motor related behavior tests were performed on the following days as described in Fig. 4a in an assessor- and observer-blinded fashion. Pre-training and baseline setup for motor-related behaviors were performed 3 days prior to the injections. Mice were sacrificed and subjected to immunohistochemistry. Mice were housed at the Animal Care Facilities of McLean Hospital under a 12-h light/12-h dark cycle, ambient temperature and humidity. Animals were handled in accordance with McLean Hospital’s Institutional Animal Care and Use Committee (Protocol #: 2015N000002) and followed National Institutes of Health guidelines.
# The olfactory discrimination test was designed based on Prediger et al.. Briefly, mice were placed in a chamber (40 (w) × 20 (d) × 20 (h) cm) segmented with two identical compartments containing fresh sawdust (non-familiar odor) on one side and unchanged sawdust (familiar odor; maintained for 3 days before the test) on the other side. Mice could choose between one or another area by freely passing through an open door, for 5 min. Mice movements were monitored with EthoVision XT version 7.0 (Noldus) and time (s) and distance (cm) traveled in each compartment were recorded and analyzed.
# [3] = tested on: MPTP-induced male mice; assay: IHC/stereology of TH+ fibers, TH+ DA neurons and NeuN+ neurons, MPTP-induced mice; assay type: in vivo, mouse; conditions: MPTP-induced mice, individual animal values
# Protocol: as §1
# (§2) Images were acquired using a KEYENCE microscope and quantified as the number or optical density of immunoreactive cells using ImageJ software.
# (§3) The numbers of TH^+ DA neurons, NeuN^+ neurons, pS129 αSyn^+ cells in the SN and Iba-1^+ microglia in the SN and striatum were stereologically counted in six coronal sections (30 µm thickness) taken every 6th section (180 µm intervals) for each brain. The boundaries of the SN and striatum were delimited at low magnification (4X) to estimate each total area. Immunoreactive cells were counted with images taken at high magnification (×40) by a single blinded investigator. The group mean of the total number of immunoreactive cells from each brain was transformed as percentage of the number in the control group (%). For AAV-αSyn-induced mice, the group mean of the total number of cells in the ipsilateral side was transformed as a percentage of that observed in the contralateral side.
# [4] = tested on: MPTP-induced male mice; assay: Rotarod, sub-chronic MPTP-induced PD model mice; assay type: in vivo, mouse
# Protocol: as §1
# Mice were pre-trained on an automated 5-lane rotarod unit (10 rpm, 3 min) for 2 days and the baseline was measured (10 rpm, 90 sec) before the rotarod test (3 days before the MPTP injection or the first rotarod test at week 2). Rotarod measurements were performed using an accelerating protocol, accelerated smoothly from 2 to 30 rpm for 5 min. Time on the rotating rod was measured automatically by placing a trip switch under the floor beneath the rotating drum.
# [5] = tested on: MPTP-induced male mice; assay: Cylinder test, MPTP-induced PD model mice; assay type: in vivo, mouse
# Protocol: as §1
# Mice were placed in a transparent plastic cylinder (15.5 cm high, 12.7 cm diameter) with a mirror behind it. Spontaneous activity was recorded and measured as counting the number of rearing events for 3 min session. A rear was considered only when the mouse touched the wall of the cylinder with its forelimb paws while standing on its hindlimbs (vertical movement) to count meaningful physiological movements.
# [6] = tested on: MPTP-induced male mice; assay: Pole test, MPTP-induced PD model mice; assay type: in vivo, mouse
# Protocol: as §1
# Mice were trained to descend a vertical metal rod wrapped with rough tape (80 cm high, 12 mm diameter) once per day for 2 days, and then the baseline was measured before the pole test (3 days before the MPTP injection or the first pole test at week 2). Mice were placed head-upward on the pole and total descent time was recorded.
# [7] = tested on: MPTP-induced male mice; assay: AIMs scoring (dyskinesia), MPTP-induced PD model mice; assay type: in vivo, mouse; conditions: for AIMs score (20-140 min): Figure 4f, MPTP-induced mice, individual animal values
# Protocol: Male C57BL/6 J mice (8–10 weeks, 25–30 g; Jackson Laboratories) were randomly assigned to 5 groups including vehicle (VEH), MPTP, MPTP + L-DOPA, MPTP + CQ and MPTP + 4A7C-301 (n ≥ 7 for each group). MPTP (Sigma-Aldrich) was intraperitoneally (i.p.) injected (30 mg/kg) for 5 days (Day 1-5). Different dosages of CQ (20, 40, and 80 mg/kg) and 4A7C-301 (1, 5, 20 mg/kg) were first tested to determine the effective dose window, then 40 and 5 mg/kg doses were finally selected for CQ and 4A7C-301 respectively to show the most prominent effects. CQ or 4A7C-301 was dissolved in PBS and administrated (i.p.) for 16 days starting with MPTP injection (Day 1-16). To test dyskinetic involuntary behavior, an L-DOPA injected group was included, which received 50 mg/kg of L-DOPA and 15 mg/kg of benserazide (Sigma-Aldrich) (i.p.) for 16 days (Day 1–16). All compounds were administered 6 h post-MPTP injection to avoid any effect of compounds on the MPTP metabolism in the brain. Motor and non-motor related behavior tests were performed on the following days as described in Fig. 4a in an assessor- and observer-blinded fashion. Pre-training and baseline setup for motor-related behaviors were performed 3 days prior to the injections. Mice were sacrificed and subjected to immunohistochemistry. Mice were housed at the Animal Care Facilities of McLean Hospital under a 12-h light/12-h dark cycle, ambient temperature and humidity. Animals were handled in accordance with McLean Hospital’s Institutional Animal Care and Use Committee (Protocol #: 2015N000002) and followed National Institutes of Health guidelines.
# Abnormal involuntary movements (AIMs) were scored using the developed mouse dyskinesia rating scale as described in Sebastianutto et al.. Briefly, 4 mice were recorded simultaneously with a Swann HD Security System (B&H Photo-Video Inc.) for 2 min per session, every 20 min during the 140 min following drug injections (i.e., total 7 sessions), on every other or third day (Day 2, 4, 7, 9, 11, 13, and 16). Dyskinetic movements were scored for 3 subtypes of basic AIMs including axial, forelimb and orolingual AIMs, based on the severity scale from 0 to 4 which measures the duration of AIMs (0 = no dyskinesia; 1 = display dyskinesia for <50% of the observation time; 2 = display dyskinesia for >50% of the observation time; 3 = display dyskinesia for the entire observation period but ceased upon external stimuli; 4 = display continuous and unceasing dyskinesia). To get a better and more sensitive validation of mice dyskinesia, we included an amplitude AIMs score, which rates the degree of deviation of body part or muscle position from its resting position on a 0-4 scale as previously described. Finally, global AIMs score was calculated by multiplying basic AIMs and amplitude AIMs scores for each subtype on each session. Data points were plotted as the grand total of individual AIMs score on each testing day.
# [8] = tested on: MPTP-induced male mice; assay: IHC of Iba-1+ microglia in STR and SNpc, MPTP-induced mice; assay type: in vivo, mouse; conditions: MPTP-induced mice, individual animal values
# Protocol: as §1, §2, §3
# [9] = biological target: T2, Nurr1-LBD point mutants (Mus musculus, UniProt Q06219, S441A); assay: Luciferase assay with point-mutants of Nurr1-LBD, SK-N-BE(2)C cells;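 further: Firefly luciferase normalized to beta-galactosidase activity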; assay type: cell-based; conditions: Supplementary Fig. 2, S441A
# T2 construct: expressed in transfected cells; host or cells: SK-N-BE(2)C
# Protocol: (§4) Nurr1 transactivity was normalized to β-galactosidase activity.
# (§5) Nurr1 mutants were generated using the QuikChange ǁ XL site-directed mutagenesis kit (Agilent Technologies) according to the manufacturer’s instruction. Mutagenesis reactions were carried out on the plasmid of mouse Nurr1 cloned into pcDNA3.1 backbone, and then verified by sequencing.
# [10] = biological target: T3, Nurr1-LBD point mutants (Mus musculus, UniProt Q06219, K590A); assay: as above; assay type: cell-based; conditions: Supplementary Fig. 2, K590A
# T3 construct: expressed in transfected cells; host or cells: SK-N-BE(2)C
# Protocol: as §4, §5
# [11] = biological target: T4, Nurr1-LBD point mutants (Mus musculus, UniProt Q06219, D594A); assay: as above; assay type: cell-based; conditions: Supplementary Fig. 2, D594A
# T4 construct: expressed in transfected cells; host or cells: SK-N-BE(2)C
# Protocol: as §4, §5
# [12] = biological target: T5, Nurr1-LBD point mutants (Mus musculus, UniProt Q06219, L593A); assay: as above; assay type: cell-based; conditions: Supplementary Fig. 2, L593A
# T5 construct: expressed in transfected cells; host or cells: SK-N-BE(2)C
# Protocol: as §4, §5
# [13] = biological target: T6, Nurr1-LBD point mutants (Mus musculus, UniProt Q06219); assay: as above; assay type: cell-based; conditions: Supplementary Fig. 2, WT
# T6 construct: expressed in transfected cells; host or cells: SK-N-BE(2)C
# Protocol: as §4, §5
# [14] = CQ 40, 4A7C-301 5, L-DOPA 50 mg/kg/day, i.p., 16 days
# T2 sequence (Q06219 whole entry S441A, the tested form may be a part): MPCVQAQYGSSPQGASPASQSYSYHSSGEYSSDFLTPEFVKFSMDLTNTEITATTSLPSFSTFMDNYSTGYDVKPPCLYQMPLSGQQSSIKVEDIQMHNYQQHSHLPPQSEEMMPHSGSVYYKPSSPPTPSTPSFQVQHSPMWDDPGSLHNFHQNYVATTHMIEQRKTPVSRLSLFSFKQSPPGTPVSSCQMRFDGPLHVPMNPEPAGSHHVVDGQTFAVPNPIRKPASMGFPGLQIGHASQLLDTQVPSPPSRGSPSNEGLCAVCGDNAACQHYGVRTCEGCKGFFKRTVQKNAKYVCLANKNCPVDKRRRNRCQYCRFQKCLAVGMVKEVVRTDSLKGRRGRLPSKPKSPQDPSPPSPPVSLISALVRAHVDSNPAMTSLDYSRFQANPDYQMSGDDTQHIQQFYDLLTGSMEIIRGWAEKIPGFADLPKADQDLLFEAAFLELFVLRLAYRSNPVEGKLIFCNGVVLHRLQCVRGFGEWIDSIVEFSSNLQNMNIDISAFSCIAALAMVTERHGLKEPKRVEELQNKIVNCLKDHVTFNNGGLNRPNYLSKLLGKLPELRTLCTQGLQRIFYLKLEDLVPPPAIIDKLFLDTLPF
# T3 sequence (Q06219 whole entry K590A, the tested form may be a part): as the sequence (Q06219 whole entry S441A, the tested form may be a part) above, with A441S, K590A counted along it
# T6 sequence (Q06219 whole entry, change not shown, the tested form may be a part): as the sequence (Q06219 whole entry S441A, the tested form may be a part) above, with A441S counted along it
# T1 sequence (P22736 360-595 limits assumed, species assumed): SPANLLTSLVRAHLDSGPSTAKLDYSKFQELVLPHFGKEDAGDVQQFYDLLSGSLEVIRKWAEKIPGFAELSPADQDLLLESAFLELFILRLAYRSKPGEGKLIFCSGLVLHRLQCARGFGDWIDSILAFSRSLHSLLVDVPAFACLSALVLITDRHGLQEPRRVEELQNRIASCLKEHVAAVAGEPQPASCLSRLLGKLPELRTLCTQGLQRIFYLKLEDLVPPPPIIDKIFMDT
# T5 sequence (Q06219 whole entry L593A, the tested form may be a part): as the sequence (Q06219 whole entry S441A, the tested form may be a part) above, with A441S, L593A counted along it
# T4 sequence (Q06219 whole entry D594A, the tested form may be a part): as the sequence (Q06219 whole entry S441A, the tested form may be a part) above, with A441S, D594A counted along it
smiles,measurement,setting,value
"CCCCCCCC(=O)c1c(O)cc(O)cc1CC(=O)OCC [Cytosporone B, cytosporone B]","Luciferase activity (fold), Nur77",[1],13.029 fold and 14.4047 fold and 12.8586 fold
same,"Luciferase activity (fold), Nur77",[1]; listed as cytosporone B,robustly increased
N[C@@H](Cc1ccc(O)c(O)c1)C(=O)O [L-DOPA],Velocity,[2],4.7 cm/s and 5.67 cm/s and 6.49 cm/s and 5.88 cm/s and 6.16 cm/s and 7.7 cm/s and 9.82 cm/s and 6.86 cm/s and 7.1 cm/s and 6.45 cm/s and 7.2 cm/s
same,"Duration to stay (sec), New bedding",[2]; New bedding,183.25 s and 108.99 s and 116.25 s and 132.99 s and 167.47 s and 141.68 s and 212.98 s and 167.63 s and 167.4 s and 102.43 s and 140.79 s
same,"Duration to stay (sec), Old bedding",[2]; Old bedding,133.6 s and 197.16 s and 159.56 s and 114.75 s and 189.57 s and 183.55 s and 166.31 s and 132.11 s and 158.67 s and 90.56 s and 134.77 s
same,TH+ neurons in SNpc (% of control),[3]; Figure 4j,85.08 % of control and 29.95 % of control and 41.78 % of control and 36.5 % of control and 16.11 % of control and 47.32 % of control and 20.39 % of control
same,NeuN+ neurons in SNpc (% of control),[3]; Figure 4k,54.87 % of control and 63.58 % of control and 65.33 % of control and 79.48 % of control
same,TH fiber density in STR (% of control),[3]; Figure 4h,32.4 % of control and 36.19 % of control and 33.35 % of control and 30.68 % of control and 30.71 % of control and 45.79 % of control and 28.8 % of control
same,"motor function, rotarod (in words)",[4]; [14],significantly rescued
same,Latency to fall,"[4]; Figure 4b, MPTP-induced mice, individual animal values",137.97 s and 138.13 s and 80.13 s and 101.23 s and 128.1 s and 204.93 s and 146.8 s and 175.2 s and 116.5 s and 196.07 s
same,"motor function, cylinder test (in words)",[5]; [14],significantly rescued
same,Number of rearing,"[5]; Figure 4d, MPTP-induced mice, individual animal values",34 and 77 and 71 and 22 and 24 and 17 and 21 and 55 and 32 and 29
same,"motor function, pole test (in words)",[6]; [14],significantly rescued
same,Time to traverse,"[6]; Figure 4c, MPTP-induced mice, individual animal values",8.78 s and 7.65 s and 6.89 s and 8.14 s and 4.4 s and 7.41 s and 5.91 s and 7.98 s and 7.2 s and 9.47 s
same,abnormal involuntary movements (AIMs) (in words),"[7]; CQ 40, 4A7C-301 5, L-DOPA 50 mg/kg/day, i.p.",severe AIMs
same,AIMs score (20-140 min),[7]; day 2,7 and 5.5 and 11 (2×) and 6 and 14 and 20 and 4 and 12 and 5 and 16.3
same,AIMs score (20-140 min),[7]; day 4,9 and 13 and 14 and 12 (2×) and 16 (2×) and 17 (2×) and 27 (2×)
same,AIMs score (20-140 min),[7]; day 7,21.5 and 27.5 and 12 and 55 and 25.5 and 35 and 14 and 56 and 31.5 and 46 and 20
same,AIMs score (20-140 min),[7]; day 9,23 (2×) and 26 and 21 (3×) and 19 (2×) and 42 and 18 and 44
same,AIMs score (20-140 min),[7]; day 11,28 and 33 and 23 and 27 and 20 and 35 (2×) and 12 and 55.5 and 30.5 and 61
same,AIMs score (20-140 min),[7]; day 13,63.5 and 30.5 and 43 and 32.5 and 36 and 50 and 34 and 34.5 and 53.25 and 63 and 56
same,AIMs score (20-140 min),[7]; day 16,110.5 and 38.5 (2×) and 56 and 60.5 and 40.5 and 47.5 and 84 and 48.5 and 67.5 and 83.5
same,Iba-1+ cells in STR (% of control),[8]; Figure 4m,163.11 % of control and 168.08 % of control and 185.26 % of control and 234.36 % of control and 189.06 % of control and 208.32 % of control and 222.78 % of control
same,Iba-1+ cells in SNpc (% of control),[8]; Figure 4n,319.52 % of control and 324.44 % of control and 366.71 % of control and 419.8 % of control and 373.6 % of control and 282.16 % of control and 446.35 % of control
"CCN(CC)Cc1cc(Nc2ccnc3cc(Cl)ccc23)ccc1O [AQ, amodiaquine]",Luciferase activity (fold),[9],14.9384 fold and 15.2215 fold and 14.6264 fold
same,Luciferase activity (fold),[10],14.5075 fold and 14.599 fold and 17.3856 fold
same,Luciferase activity (fold),[11],15.1749 fold and 15.4902 fold and 14.0814 fold
same,Luciferase activity (fold),[12],14.8074 fold and 14.193 fold and 15.2957 fold
same,Luciferase activity (fold),[13],16.1226 fold and 16.0906 fold and 15.547 fold

# From article PMC10354055, “An optimized Nurr1 agonist provides disease-modifying effects in Parkinson’s disease models” (Nature Communications, 2023)
